In article PMC6934184, “Selective DNA-PKcs inhibition extends the therapeutic index of localized radiotherapy and chemotherapy” (The Journal of Clinical Investigation, 2019) one finds inhibition data, which are given here for 1 molecule.

The assay has as its target T1, NEK9 (Homo sapiens, UniProt Q8TD19).
T1 construct: purchased Thermo Fisher Scientific (Life Technologies) SelectScreen
Description: SelectScreen Z'LYTE. In kind it is biochemical. Put shortly:
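Percent values come from Thermo SelectScreen profiling of NU5455, combining activity and binding assays. CSF1R was run in Z'LYTE format at Km app ATP, and CAMK1 in Adapta format with ATP listed at 10.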

T1 sequence (Q8TD19 whole entry): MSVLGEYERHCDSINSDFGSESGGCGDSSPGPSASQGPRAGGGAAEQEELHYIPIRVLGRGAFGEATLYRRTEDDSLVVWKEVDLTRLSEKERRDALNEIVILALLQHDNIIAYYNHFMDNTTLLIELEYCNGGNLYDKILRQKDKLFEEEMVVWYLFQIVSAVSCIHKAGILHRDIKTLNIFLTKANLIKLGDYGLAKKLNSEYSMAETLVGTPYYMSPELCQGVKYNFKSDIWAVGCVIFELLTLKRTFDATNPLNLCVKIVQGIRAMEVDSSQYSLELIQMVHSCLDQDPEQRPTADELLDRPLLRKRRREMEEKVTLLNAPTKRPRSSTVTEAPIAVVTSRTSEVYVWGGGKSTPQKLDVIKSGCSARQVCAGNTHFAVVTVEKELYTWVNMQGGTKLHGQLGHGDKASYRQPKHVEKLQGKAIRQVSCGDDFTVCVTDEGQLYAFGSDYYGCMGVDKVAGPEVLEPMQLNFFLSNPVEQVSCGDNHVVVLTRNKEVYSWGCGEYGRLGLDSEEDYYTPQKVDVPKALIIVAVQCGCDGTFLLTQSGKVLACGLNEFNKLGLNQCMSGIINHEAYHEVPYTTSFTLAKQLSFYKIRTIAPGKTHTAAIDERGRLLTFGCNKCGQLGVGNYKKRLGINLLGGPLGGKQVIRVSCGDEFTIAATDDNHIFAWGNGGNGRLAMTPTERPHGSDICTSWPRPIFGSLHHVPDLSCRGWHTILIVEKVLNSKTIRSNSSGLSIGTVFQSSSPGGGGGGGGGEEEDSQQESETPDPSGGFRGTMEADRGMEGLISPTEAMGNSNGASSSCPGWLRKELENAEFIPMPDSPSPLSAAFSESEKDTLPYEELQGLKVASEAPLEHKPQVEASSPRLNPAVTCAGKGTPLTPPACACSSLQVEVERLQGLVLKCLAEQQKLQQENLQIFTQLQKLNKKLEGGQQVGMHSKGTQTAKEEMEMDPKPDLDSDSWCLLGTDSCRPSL

As to `CN(C(=O)CN1CCOCC1)c1ccc2sc3c(-c4cccc5c(=O)cc(N6CC7CCC(C6)O7)oc45)cccc3c2c1` [NU5455], the inhibition at 1 µM is -7.2%.
